“And” between values parts separate entries of the source, which are not always exact repeats. Identical values can stand only once.
System: 616215-338-R-J1-PDC complex spheroid viability
Assay: Anticancer human tumor 616215-338-R-J1-PDC patient-derived colon adenocarcinoma cell line growth inhibition [RAS]
Details: for viability, T/C: stronger effect = lower value
Source text: RAS pathway inhibitors in Combinations in Complex Spheroids
A high-throughput screen of multi-cell type tumor spheroids was designed to identify active combinations of RAS pathway inhibitors and targeted small molecules. Complex spheroids include a stromal component modeled by human endothelial cells (HUVEC) and fibroblasts modeled by human mesenchymal stem cells (MSCs). The concentration ranges selected for each drug and investigational agent were based upon clinically achievable concentrations if the clinical Cmax of the agent was known.
Compounds. The drugs and investigational agents: abemaciclib (NSC768073), cobimetinib (NSC768068), divarasib (GDC6063, NSC841802), docetaxel (NSC628503), GDC-1971 (RLY-1971, NSC841576), gemcitabine (NSC613327), inavolisib (NSC800729), ipatasertib (NSC767898), KB-0742 (NSC834161), MRTX-1133 (NSC836407), osimertinib (NSC779217), RMC-4630 (NSC839698), RMC-6236 (NSC851965), RMC-6291 (NSC852671), Ro-3306 (NSC812927), sapanisertib (NSC764658), SN-38 (NSC673596), staurosporine (NSC755774), SY5609 (NSC837396), and tovorafenib (DAY101, NSC766906), were obtained from the National Cancer Institute (NCI) Developmental Therapeutics Program Chemical Repository. The FDA-approved anticancer drug set is available from the NCI Developmental Therapeutics Program. […] The stock solutions were prepared in dimethyl sulfoxide (DMSO, Sigma-Aldrich, St. Louis, MO, cat. D2650) at 800-fold the tested concentration and stored at -70 degrees C prior to their use. All drugs and investigational agents were tested over a range starting from a high concentration at or near the clinical Cmax and decreasing in half-log increments. If the clinical Cmax for an agent had not been determined, the highest concentration tested was 10 microM.
Cell Culture. All cells were maintained in an incubator at 37 degrees C and 5% CO2 with 95% humidity. The PDC lines were cultured according to standard operating procedures established by the NCI PDMR. All PDCs were thawed and cultured in Matrigel-coated flasks prepared with a working solution of 1X Ham's F-12 nutrient mix, without supplementation (Invitrogen, Waltham, MA, cat. 11765054), 100 U/mL penicillin-streptomycin (Invitrogen, cat. 15140122), and 2.5% Matrigel (Corning Inc., Corning, NY, cat. 354248) for the first three passages. The 362531-283-R-J2-PDC and 782815-120-R-J1-PDC lines were cultured in 6C/Colon 1B media, which includes advanced DMEM/F-12 (Thermo Fisher Scientific, cat. 12634028), 10 mM HEPES (Thermo Fisher Scientific, cat. 15630080), 1X GlutaMAX supplement (Thermo Fisher Scientific, cat. 35050061), 0.1 mg/mL primocin (InvivoGen, San Diego, CA, cat. ant-pm-2), 10% defined fetal bovine serum, heat inactivated (HyClone Laboratories Inc., Logan, UT, cat. SH30070.03HI), 50% L-WRN conditioned media (ATCC, cat. CRL-3276), 1.25 mM N-Acetyl-L-cysteine (Sigma-Aldrich, cat. A9165), 10 mM nicotinamide (Sigma-Aldrich, cat. N0636), 1X B-27 supplement (Thermo Fisher Scientific, cat. 17504044), 1X N-2 supplement (Thermo Fisher Scientific, cat. 17502048), 50 ng/mL human EGF (Thermo Fisher Scientific, cat. PHG0311), and 10 microM Y-27632 dihydrochloride (Tocris Bioscience, cat. 1254). The K12877-001-R-J1-PDC line was cultured in 6I media, which includes all 6C/Colon 1B media plus 10 ng/mL human FGF-10 (PeproTech, cat. 100-26), 1 ng/mL human FGF-2 (PeproTech, cat. 100-18B), 1 µM prostaglandin E2 (Tocris Bioscience, cat. 2296), […] hydrocortisone (Sigma-Aldrich, cat. H4001), and […] bovine insulin (Sigma-Aldrich, cat. I6634). The K86415-001-R-J1-PDC line was cultured in 6D media, which includes all 6C/Colon 1B media components minus the L-WRN conditioned media. The 485176-168-R4-J1-PDC was cultured in PANC media, which includes all 6C/Colon 1B media plus 100 ng/mL human FGF-10 (PeproTech, cat. 100-26), 500 nM SB-431542 (Selleckchem, cat. S1067), and 10 nM gastrin (Tocris Bioscience, cat. 3006). […]

[1] = compound alone, run of 06/10/2024
[2] = compound alone, run of 05/20/2024
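Also: spheroids exposed to agents for seven days before viability readout.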
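For viability, T/C in this document: 100% = DMSO vehicle control viability.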

IC50 (curve of compound)	Compound	viability, T/C (compound 0.0316 µM)	viability, T/C (compound 0.1 µM)	viability, T/C (compound 0.316 µM)	viability, T/C (compound 1 µM)	viability, T/C (compound 3.16 µM)	viability, T/C (compound 10 µM)	viability, T/C (compound 0.00316 µM)	viability, T/C (compound 0.01 µM)	also measured
> 1 µM	C=CC(=O)N1CCN(c2nc(OCC3CCCN3C)nc3c(F)c(-c4nc(N)cc(C)c4C(F)(F)F)c(Cl)cc23)C(C)C1 (stereo unspecified)	99.4% [middle of 12 runs]	102% [middle of 12 runs]	104% [middle of 12 runs]	103% [middle of 12 runs]			100% [middle of 12 runs]	102% [middle of 12 runs]	IC50 [1]: > 1 µM
> 1 µM	C=CC(=O)Nc1cc(Nc2nccc(-c3cn(C)c4ccccc34)n2)c(OC)cc1N(C)CCN(C)C	103% [middle of 4 runs]	105% [middle of 4 runs]	109% [middle of 4 runs]	74.3% [middle of 4 runs]			96.5% [middle of 4 runs]	100% (2×) and 96% and 97.4%	
20.3 nM [middle of 4 runs]	CC1(C)CCC(Nc2ncc(C(F)(F)F)c(-c3c[nH]c4c(P(C)(C)=O)c(C#N)ccc34)n2)CN1 (stereo unspecified)									viability, T/C (compound 0.000949 µM): 98.8% [middle of 4 runs]; viability, T/C (compound 0.003 µM): 101% [middle of 4 runs]; viability, T/C (compound 0.00949 µM): 66.1% [middle of 4 runs]; viability, T/C (compound 0.03 µM): 40.8% [middle of 4 runs]; viability, T/C (compound 0.0949 µM): 37% [middle of 4 runs]; viability, T/C (compound 0.3 µM): 35.2% [middle of 4 runs]
> 1 µM	CCN1CCN(Cc2ccc(Nc3ncc(F)c(-c4cc(F)c5nc(C)n(C(C)C)c5c4)n3)nc2)CC1	113% [middle of 4 runs]	117% (3×) and 120%		64.1% (2×) and 70.2% and 59.4%				104% [middle of 4 runs]	

Continued, compound first:

Compound	IC50 (curve of compound)	viability, T/C (compound 0.0316 µM)	viability, T/C (compound 0.1 µM)	viability, T/C (compound 0.316 µM)	viability, T/C (compound 1 µM)	viability, T/C (compound 3.16 µM)	viability, T/C (compound 10 µM)	viability, T/C (compound 0.00316 µM)	viability, T/C (compound 0.01 µM)	also measured
C#Cc1c(F)ccc2cc(O)cc(-c3ncc4c(N5CC6CCC(C5)N6)nc(OCC56CCCN5CC(F)C6)nc4c3F)c12 (stereo unspecified)		107% [middle of 8 runs]	107% [middle of 8 runs]	110% [middle of 8 runs]	108% [middle of 8 runs]	102% [middle of 8 runs]	70.6% [middle of 8 runs]			IC50 [1]: > 10 µM
CC(C)NCC(C(=O)N1CCN(c2ncnc3c2C(C)CC3O)CC1)c1ccc(Cl)cc1 (stereo unspecified)		105% [middle of 4 runs]	100% [middle of 4 runs]	100% [middle of 4 runs]	101% [middle of 4 runs]	95.3% (2×) and 87.8% and 95.7%	49.3% [middle of 4 runs]			
CC(C)n1nc(-c2ccc3oc(N)nc3c2)c2c(N)ncnc21	> 0.1 µM	110% [middle of 4 runs]	75.2% [middle of 4 runs]					94.6% and 107% (2×) and 98%	107% [middle of 4 runs]	viability, T/C (compound 0.000316 µM): 99.5% (2×) and 101% and 97.1%; viability, T/C (compound 0.001 µM): 105% [middle of 4 runs]
CC(Nc1ccc2c(c1)OCCn1cc(N3C(=O)OCC3C(F)F)nc1-2)C(N)=O (stereo unspecified)	> 10 µM	111% [middle of 4 runs]	108% [middle of 4 runs]	110% [middle of 4 runs]	107% [middle of 4 runs]	102% [middle of 4 runs]	83.5% [middle of 4 runs]			
CC1(O)CCCC1n1c(=O)c(C(F)F)cc2cnc(NC3CCN(S(C)(=O)=O)CC3)nc21 (stereo unspecified)	1.23 µM [middle of 4 runs]	112% [middle of 4 runs]	103% [middle of 4 runs]	59.3% [middle of 4 runs]	56.1% [middle of 4 runs]	48.9% [middle of 4 runs]	2.6% [middle of 4 runs]			
CCC(CC)c1cc(NC2CCC(N)C2)n2nccc2n1 (stereo unspecified)	1.8 µM [middle of 4 runs]	109% [middle of 4 runs]	99.7% and 102% (2×) and 93.3%	93.8% [middle of 4 runs]	107% [middle of 4 runs]	0.63% [middle of 4 runs]	0.37% [middle of 4 runs]			
CCc1c2c(nc3ccc(O)cc13)-c1cc3c(c(=O)n1C2)COC(=O)[C@]3(O)CC										viability, T/C (compound 0.000949 µM): 104% [middle of 4 runs]; viability, T/C (compound 0.003 µM): 105% [middle of 4 runs]; viability, T/C (compound 0.03 µM): 37.2% [middle of 4 runs]; viability, T/C (compound 0.0949 µM): 24.3% [middle of 4 runs]; viability, T/C (compound 0.3 µM): 16.9% [middle of 4 runs]
CCn1c(-c2cc(N3CCN(C)CC3)cnc2C(C)OC)c2c3cc(ccc31)-c1csc(n1)CC(NC(=O)C1CC1C)C(=O)N1CCCC(N1)C(=O)OCC(C)(C)C2 (stereo unspecified)										viability, T/C (compound 0.000949 µM): 107% [middle of 8 runs]; viability, T/C (compound 0.003 µM): 106% [middle of 8 runs]; viability, T/C (compound 0.00949 µM): 81.7% [middle of 8 runs]; viability, T/C (compound 0.03 µM): 53.7% [middle of 8 runs]; viability, T/C (compound 0.0949 µM): 40.6% [middle of 8 runs]; viability, T/C (compound 0.3 µM): 37.5% [middle of 8 runs]; IC50 [2]: 41.2 nM [middle of 8 runs]
CCn1c(-c2cccnc2C(C)OC)c2c3cc(ccc31)N1CCOC(CC(NC(=O)C(C(C)C)N(C)C(=O)C3(F)CCN(C(=O)C#CC(C)(C)N(C)C)CC3)C(=O)N3CCCC(N3)C(=O)OCC(C)(C)C2)C1 (stereo unspecified)										viability, T/C (compound 0.000949 µM): 102% [middle of 8 runs]; viability, T/C (compound 0.003 µM): 102% [middle of 8 runs]; viability, T/C (compound 0.00949 µM): 107% [middle of 8 runs]; viability, T/C (compound 0.03 µM): 106% [middle of 8 runs]; viability, T/C (compound 0.0949 µM): 110% [middle of 8 runs]; viability, T/C (compound 0.3 µM): 109% [middle of 8 runs]; IC50 [2]: > 0.3 µM
C[C@@H](NC(=O)c1ncnc(N)c1Cl)c1ncc(C(=O)Nc2cc(C(F)(F)F)c(Cl)cn2)s1	> 10 µM and 8.87 µM	102% [middle of 4 runs]	110% [middle of 4 runs]	112% [middle of 4 runs]	124% and 105% and 112% (2×)					
Nc1ccn(C2OC(CO)C(O)C2(F)F)c(=O)n1 (stereo unspecified)	9.77 nM [middle of 4 runs]	29.4% [middle of 4 runs]	16.2% [middle of 4 runs]	15.4% [middle of 4 runs]	15.7% [middle of 4 runs]			101% [middle of 4 runs]	46.9% [middle of 4 runs]	
O=C(c1ccc(F)c(F)c1Nc1ccc(I)cc1F)N1CC(O)([C@@H]2CCCCN2)C1	78 nM [middle of 4 runs]	81.5% [middle of 4 runs]	41.5% [middle of 4 runs]	19.9% [middle of 4 runs]	5.56% [middle of 4 runs]			111% [middle of 4 runs]	102% (2×) and 95.7% and 113%	

Reference: PubChem BioAssay AID2060898 (Molecular Pharmacology Branch, DTP, NCI, 2025)
